Data: patent US8415469B2, “Compounds and methods for kinase modulation, and indications therefor” (Plexxikon Inc., priority 2005, dated 2013)

Legend:
Format in all cases: biochemical
[1] = molecular target: T1, Jak3 (Homo sapiens, UniProt P52333); assay: AlphaScreen kinase assay, Jak3; settings: read-out: IC50, activity toward kinase Jak3
T1 sequence (P52333 1-1124): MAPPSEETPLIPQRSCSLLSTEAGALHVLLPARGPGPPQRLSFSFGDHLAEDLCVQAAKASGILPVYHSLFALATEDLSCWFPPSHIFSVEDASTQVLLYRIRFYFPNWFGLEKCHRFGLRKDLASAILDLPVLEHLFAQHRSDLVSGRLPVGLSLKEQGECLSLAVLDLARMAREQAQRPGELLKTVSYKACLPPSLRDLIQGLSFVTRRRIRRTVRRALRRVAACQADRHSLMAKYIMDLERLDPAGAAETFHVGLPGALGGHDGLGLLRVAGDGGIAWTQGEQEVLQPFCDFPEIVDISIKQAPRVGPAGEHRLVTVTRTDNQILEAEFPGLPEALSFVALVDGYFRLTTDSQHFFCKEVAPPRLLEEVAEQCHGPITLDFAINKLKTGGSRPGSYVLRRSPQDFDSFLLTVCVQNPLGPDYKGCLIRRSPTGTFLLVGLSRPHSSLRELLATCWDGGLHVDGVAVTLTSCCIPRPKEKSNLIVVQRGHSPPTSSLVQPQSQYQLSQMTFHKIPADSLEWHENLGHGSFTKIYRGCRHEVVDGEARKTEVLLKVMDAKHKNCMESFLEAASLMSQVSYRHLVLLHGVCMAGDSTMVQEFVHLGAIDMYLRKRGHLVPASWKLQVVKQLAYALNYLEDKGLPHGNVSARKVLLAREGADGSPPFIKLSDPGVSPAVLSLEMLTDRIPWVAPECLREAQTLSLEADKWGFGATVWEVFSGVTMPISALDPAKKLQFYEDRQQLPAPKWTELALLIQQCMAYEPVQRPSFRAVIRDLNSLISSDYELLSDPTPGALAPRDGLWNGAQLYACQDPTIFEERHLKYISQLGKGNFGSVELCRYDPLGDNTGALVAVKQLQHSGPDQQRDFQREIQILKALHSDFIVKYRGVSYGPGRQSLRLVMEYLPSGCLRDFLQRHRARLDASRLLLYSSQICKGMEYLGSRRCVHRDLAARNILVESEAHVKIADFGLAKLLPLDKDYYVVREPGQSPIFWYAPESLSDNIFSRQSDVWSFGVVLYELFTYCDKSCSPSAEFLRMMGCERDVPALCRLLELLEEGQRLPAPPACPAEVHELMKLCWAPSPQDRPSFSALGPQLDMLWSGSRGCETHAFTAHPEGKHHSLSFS
Excerpt: AlphaScreen assay was used to screen additional kinases. The assay is similarly dependent on the phosphorylation of a peptide substrate. In this assay, an antibody that recognizes phosphorylated substrate is bound to an acceptor bead. The peptide substrate is attached to biotin, which binds to a donor head that contains streptavidin. Thus phosphorylated substrate is bound by antibody and streptavidin, bringing the donor and acceptor heads into close proximity when kinase is not inhibited. The donor produces singlet oxygen which results in emission from the acceptor when they are in close proximity. Conversely, when kinase is inhibited, the donor and acceptor beads are not associated and the emission from the acceptor is reduced.
AlphaScreen assays were done using compounds dissolved in DMSO to a concentration of 20 mM. The compounds were diluted accordingly to the desired final concentrations in each sample well, using 1:3 serial dilution for a total of 8 concentration points.

[2] = molecular target: T2, Btk (Homo sapiens, UniProt Q06187); assay: Z'-Lyte FRET kinase assay (Invitrogen), Btk; settings: read-out: IC50, activity toward kinase Btk
T2 construct: purchased Invitrogen (assay run by Invitrogen)
T2 sequence (Q06187 whole entry): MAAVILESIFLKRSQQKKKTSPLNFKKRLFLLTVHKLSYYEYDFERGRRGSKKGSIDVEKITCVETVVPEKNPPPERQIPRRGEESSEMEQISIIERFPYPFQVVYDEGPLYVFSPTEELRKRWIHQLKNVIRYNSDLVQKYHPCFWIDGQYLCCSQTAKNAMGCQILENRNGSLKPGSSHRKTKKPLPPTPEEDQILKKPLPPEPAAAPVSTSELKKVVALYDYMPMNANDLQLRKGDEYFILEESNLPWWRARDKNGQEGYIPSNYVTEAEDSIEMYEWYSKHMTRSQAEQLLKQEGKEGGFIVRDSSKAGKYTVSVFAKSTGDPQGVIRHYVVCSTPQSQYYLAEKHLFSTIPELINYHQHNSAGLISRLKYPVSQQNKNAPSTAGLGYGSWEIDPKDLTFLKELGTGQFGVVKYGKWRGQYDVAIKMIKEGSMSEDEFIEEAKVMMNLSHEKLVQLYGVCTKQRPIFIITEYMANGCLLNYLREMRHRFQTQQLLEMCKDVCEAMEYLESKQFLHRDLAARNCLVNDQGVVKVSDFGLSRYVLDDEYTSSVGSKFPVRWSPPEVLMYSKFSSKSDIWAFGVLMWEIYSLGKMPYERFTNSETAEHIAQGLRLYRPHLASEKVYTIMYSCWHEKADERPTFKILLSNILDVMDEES

[3] = molecular target: T3, Yes (Homo sapiens, UniProt P07947); assay: Z'-Lyte FRET kinase assay (Invitrogen), Yes; settings: read-out: IC50, activity toward kinase Yes
T3 construct: purchased Invitrogen (Carlsbad, Calif.), screening service
T3 sequence (P07947 whole entry): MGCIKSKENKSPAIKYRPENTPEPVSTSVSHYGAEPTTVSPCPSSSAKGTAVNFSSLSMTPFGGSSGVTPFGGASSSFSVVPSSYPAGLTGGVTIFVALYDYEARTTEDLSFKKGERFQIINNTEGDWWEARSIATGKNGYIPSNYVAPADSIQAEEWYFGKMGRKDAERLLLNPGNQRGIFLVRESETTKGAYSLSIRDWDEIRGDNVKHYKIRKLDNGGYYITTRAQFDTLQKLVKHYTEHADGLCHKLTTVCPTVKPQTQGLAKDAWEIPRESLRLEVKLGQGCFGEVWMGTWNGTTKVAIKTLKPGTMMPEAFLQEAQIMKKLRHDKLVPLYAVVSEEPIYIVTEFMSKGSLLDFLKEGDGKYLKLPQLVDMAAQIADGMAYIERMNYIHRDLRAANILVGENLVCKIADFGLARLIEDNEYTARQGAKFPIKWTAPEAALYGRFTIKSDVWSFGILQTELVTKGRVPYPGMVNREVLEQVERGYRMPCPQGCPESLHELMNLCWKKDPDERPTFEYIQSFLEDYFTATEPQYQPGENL
Summary of the method: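 Serially diluted compound (final 1% DMSO) incubated 1 h at room temperature with kinase, 2 μM FRET peptide and 10 μM ATP in pH 7.5 HEPES buffer. Site-specific protease then cleaves unphosphorylated peptide (1 h); inhibition read as increased coumarin-to-fluorescein emission ratio.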

[4] = molecular target: T4, Ret (Homo sapiens, UniProt P07949); assay: AlphaScreen kinase assay, Ret; settings: read-out: IC50, activity toward kinase Ret
T4 construct: P1378.pET-SF BI-PTP RET H661-R1012 HIS; made in house
T4 sequence (P07949 with tags, fused parts or gaps): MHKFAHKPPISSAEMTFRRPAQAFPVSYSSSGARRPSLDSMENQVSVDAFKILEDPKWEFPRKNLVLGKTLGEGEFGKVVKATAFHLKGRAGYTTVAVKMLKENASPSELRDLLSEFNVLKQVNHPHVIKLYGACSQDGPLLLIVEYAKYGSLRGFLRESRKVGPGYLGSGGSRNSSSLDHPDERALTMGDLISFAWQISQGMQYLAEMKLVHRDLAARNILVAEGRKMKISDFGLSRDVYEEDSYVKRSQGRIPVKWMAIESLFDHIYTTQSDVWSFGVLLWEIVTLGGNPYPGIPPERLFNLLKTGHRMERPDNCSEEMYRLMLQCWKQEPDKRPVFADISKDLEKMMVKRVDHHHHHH

[5] = molecular target: T5, B-Raf V600E (Homo sapiens, UniProt P15056, V600E); assay: AlphaScreen kinase assay, B-Raf V600E; settings: read-out: IC50, activity toward kinase B-Raf V600E
T5 construct: P4254. pFastBacBD-CDC37 BRAF D437-K722-X, V600E; His6 with pFastBac HT leader (TEV site) (N); made in house; host or cells: Sf9 (baculovirus; chaperone CDC37 co-expressed)
T5 sequence (P15056 with tags, fused parts or gaps V600E): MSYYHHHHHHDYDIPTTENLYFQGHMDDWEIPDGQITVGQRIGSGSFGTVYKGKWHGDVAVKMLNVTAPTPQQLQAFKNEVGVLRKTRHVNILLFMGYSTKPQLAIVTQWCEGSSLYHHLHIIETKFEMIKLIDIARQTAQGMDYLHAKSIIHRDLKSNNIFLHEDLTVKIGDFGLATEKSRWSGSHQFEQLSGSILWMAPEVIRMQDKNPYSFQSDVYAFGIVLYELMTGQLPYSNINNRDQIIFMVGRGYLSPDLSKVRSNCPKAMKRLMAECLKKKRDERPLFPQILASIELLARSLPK

[6] = molecular target: T6, Pyk2 (Homo sapiens, UniProt Q14289); assay: AlphaScreen kinase assay, Pyk2; settings: read-out: IC50, activity toward kinase Pyk2
T6 construct: purchased Upstate Biotechnology
T6 sequence (Q14289 whole entry): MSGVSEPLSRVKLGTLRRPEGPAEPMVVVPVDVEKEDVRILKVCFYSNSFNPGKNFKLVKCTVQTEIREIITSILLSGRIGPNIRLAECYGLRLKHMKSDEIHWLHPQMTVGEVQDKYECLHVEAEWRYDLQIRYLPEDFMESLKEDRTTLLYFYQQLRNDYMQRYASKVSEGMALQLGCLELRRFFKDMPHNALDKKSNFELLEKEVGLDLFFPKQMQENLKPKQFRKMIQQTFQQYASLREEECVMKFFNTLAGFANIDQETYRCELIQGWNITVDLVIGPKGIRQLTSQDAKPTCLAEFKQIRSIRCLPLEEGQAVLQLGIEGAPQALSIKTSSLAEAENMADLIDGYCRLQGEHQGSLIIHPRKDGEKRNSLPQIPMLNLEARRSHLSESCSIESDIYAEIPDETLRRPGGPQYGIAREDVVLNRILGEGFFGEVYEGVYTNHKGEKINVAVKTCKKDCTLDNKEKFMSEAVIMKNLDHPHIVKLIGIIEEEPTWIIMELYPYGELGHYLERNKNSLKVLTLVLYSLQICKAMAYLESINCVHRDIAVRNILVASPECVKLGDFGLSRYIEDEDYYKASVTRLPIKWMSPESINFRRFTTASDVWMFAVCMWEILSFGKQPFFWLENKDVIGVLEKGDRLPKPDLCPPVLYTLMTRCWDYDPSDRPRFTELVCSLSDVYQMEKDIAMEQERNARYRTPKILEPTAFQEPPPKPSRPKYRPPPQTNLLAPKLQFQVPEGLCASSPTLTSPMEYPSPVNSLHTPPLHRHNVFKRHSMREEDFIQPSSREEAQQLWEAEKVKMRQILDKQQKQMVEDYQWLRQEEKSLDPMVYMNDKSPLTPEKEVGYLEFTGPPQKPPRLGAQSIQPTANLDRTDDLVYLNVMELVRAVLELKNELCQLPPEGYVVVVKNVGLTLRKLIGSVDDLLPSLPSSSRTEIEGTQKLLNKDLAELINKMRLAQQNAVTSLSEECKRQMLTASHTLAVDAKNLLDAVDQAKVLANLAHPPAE

[7] = molecular target: T7, MAP2K1 (Homo sapiens, UniProt Q02750); assay: Z'-Lyte FRET kinase assay (Invitrogen), MAP2K1; settings: read-out: IC50, activity toward kinase MAP2K1
T7 construct: purchased Invitrogen (assay run by Invitrogen)
T7 sequence (Q02750 whole entry): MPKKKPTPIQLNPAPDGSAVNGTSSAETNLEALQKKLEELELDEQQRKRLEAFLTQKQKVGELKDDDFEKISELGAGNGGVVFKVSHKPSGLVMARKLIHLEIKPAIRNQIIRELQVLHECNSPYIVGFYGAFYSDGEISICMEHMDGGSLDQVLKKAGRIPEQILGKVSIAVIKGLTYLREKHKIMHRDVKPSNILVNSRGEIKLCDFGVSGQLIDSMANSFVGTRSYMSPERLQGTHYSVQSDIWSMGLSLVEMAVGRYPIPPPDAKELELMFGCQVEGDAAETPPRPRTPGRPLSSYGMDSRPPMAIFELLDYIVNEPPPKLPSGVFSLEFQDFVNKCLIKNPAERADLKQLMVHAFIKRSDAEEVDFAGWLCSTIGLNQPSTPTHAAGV

[8] = molecular target: T8, Kdr (Homo sapiens, UniProt P35968); assay: Z'-Lyte FRET kinase assay (Invitrogen), Kdr; settings: read-out: IC50, activity toward kinase Kdr
T8 construct: purchased Invitrogen (assay run by Invitrogen)
T8 sequence (P35968 20-1356): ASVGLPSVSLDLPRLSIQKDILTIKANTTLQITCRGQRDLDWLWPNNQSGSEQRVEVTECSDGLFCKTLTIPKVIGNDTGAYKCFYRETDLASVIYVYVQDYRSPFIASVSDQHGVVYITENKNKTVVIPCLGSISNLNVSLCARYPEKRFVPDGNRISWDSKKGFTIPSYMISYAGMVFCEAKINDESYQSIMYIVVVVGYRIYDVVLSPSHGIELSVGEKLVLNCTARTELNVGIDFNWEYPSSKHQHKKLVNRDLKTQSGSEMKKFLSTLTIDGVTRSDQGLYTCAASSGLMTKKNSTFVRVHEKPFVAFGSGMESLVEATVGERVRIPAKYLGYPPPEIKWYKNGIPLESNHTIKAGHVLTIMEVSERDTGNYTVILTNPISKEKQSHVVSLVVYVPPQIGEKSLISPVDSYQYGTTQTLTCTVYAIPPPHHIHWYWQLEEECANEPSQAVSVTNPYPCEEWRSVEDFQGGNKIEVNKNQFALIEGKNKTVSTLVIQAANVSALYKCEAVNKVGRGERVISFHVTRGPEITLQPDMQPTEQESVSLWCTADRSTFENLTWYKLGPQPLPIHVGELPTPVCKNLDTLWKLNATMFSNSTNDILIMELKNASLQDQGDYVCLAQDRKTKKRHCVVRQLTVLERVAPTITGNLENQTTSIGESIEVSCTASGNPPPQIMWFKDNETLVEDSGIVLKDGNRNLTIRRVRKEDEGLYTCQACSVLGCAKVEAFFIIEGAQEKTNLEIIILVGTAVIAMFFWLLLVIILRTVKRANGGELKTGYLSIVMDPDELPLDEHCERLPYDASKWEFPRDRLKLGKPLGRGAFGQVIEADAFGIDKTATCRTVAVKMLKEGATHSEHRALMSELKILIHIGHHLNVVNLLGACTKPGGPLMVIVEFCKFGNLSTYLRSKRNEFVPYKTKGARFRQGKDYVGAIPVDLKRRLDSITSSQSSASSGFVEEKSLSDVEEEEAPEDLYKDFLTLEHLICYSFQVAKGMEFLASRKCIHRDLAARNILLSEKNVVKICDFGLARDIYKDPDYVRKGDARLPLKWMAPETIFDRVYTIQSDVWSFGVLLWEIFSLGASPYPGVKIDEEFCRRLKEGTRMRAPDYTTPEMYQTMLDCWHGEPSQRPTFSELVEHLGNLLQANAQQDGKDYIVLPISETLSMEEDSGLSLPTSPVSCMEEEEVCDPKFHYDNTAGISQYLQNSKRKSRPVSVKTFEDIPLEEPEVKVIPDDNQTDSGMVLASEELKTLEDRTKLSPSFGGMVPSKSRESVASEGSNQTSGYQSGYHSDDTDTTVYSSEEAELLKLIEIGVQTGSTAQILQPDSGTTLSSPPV

[9] = molecular target: T9, Stk6 (Homo sapiens, UniProt O14965); assay: Z'-Lyte FRET kinase assay (Invitrogen), Stk6; settings: read-out: IC50, activity toward kinase Stk6
T9 construct: purchased Invitrogen (Carlsbad, Calif.), screening service
T9 sequence (O14965 1-403): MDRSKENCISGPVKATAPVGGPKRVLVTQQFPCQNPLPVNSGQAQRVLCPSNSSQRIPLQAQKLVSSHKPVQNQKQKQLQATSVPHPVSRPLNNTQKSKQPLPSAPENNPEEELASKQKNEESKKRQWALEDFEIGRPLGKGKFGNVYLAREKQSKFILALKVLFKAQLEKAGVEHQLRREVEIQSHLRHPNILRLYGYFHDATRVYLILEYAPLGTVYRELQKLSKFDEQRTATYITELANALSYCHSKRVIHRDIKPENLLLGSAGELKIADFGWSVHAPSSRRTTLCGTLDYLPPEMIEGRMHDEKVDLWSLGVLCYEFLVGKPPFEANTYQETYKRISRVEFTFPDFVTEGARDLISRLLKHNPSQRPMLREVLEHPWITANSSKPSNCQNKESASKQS

[10] = molecular target: T10, FGFR1 (Homo sapiens, UniProt P11362, C488A/C584S); assay: AlphaScreen kinase assay, FGFR1; settings: read-out: IC50, activity toward kinase FGFR
T10 construct: P1351.pET N6 BI-PTP FGFR A458-E765-X C488A, C584S; made in house; host or cells: E. coli (PTP1B co-expressed)
T10 sequence (P11362 458-765 C488A/C584S): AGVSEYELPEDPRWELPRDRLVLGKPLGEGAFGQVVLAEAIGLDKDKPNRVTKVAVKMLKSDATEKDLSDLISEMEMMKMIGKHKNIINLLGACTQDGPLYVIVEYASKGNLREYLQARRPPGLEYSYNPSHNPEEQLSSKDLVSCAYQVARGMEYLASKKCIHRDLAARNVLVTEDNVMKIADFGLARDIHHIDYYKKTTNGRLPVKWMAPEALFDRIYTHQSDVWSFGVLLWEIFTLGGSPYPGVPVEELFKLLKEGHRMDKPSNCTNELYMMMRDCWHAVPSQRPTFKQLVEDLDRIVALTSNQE

[11] = molecular target: T11, Jnk3 (Homo sapiens, UniProt P53779); assay: AlphaScreen kinase assay, Jnk3; settings: read-out: IC50, activity toward kinase Jnk3
T11 construct: purchased Upstate Biotechnology
T11 sequence (P53779 whole entry): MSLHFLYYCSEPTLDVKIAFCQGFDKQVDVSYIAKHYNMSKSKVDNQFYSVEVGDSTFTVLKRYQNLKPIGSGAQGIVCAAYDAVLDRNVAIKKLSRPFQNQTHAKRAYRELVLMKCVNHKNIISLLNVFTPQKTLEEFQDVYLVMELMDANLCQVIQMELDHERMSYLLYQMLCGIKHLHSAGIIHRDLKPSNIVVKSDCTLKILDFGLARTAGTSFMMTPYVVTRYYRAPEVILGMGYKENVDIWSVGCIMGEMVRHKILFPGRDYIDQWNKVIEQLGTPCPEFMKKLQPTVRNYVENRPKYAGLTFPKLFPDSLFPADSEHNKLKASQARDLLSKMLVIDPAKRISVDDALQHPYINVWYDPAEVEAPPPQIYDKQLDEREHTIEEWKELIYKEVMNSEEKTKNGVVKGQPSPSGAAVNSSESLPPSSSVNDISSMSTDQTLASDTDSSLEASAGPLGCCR

[12] = molecular target: T12, PKC theta (Homo sapiens, UniProt Q04759); assay: Z'-Lyte FRET kinase assay (Invitrogen), PKC theta; settings: read-out: IC50, activity toward kinase PKC theta
T12 construct: purchased Invitrogen (Carlsbad, Calif.), screening service
Excerpt: The effect of potential modulators of kinase activity can be measured in a variety of different assays known in the art. For example, direct radiometric, indirect FRET or AlphaScreen assays may be used to assess the level of phosphorylation of a substrate in the presence of test compounds in order to determine the inhibitory affect of the compound on the kinase. Invitrogen (Carlsbad, Calif.) uses a FRET based assay for Btk, EGFR, EphB2, Flt3, lrak4, Kdr, MAP2K1, MAPKAPK2, PDGFRB, PKC theta, Stk6 and Yes. For these assays, compounds of the invention were screened by Invitrogen using Z′-Lyte™ kinase assay.
Briefly, the Invitrogen kinase assay involves use of a specific peptide substrate optimized for each kinase, containing a fluorophore at each end that make up the FRET pair. The peptide sensitivity to proteolytic cleavage depends on phosphorylation of the peptide. Non-phosphorylated peptide is cleaved by a protease while peptide phosphorylated by the kinase is not cleaved. Cleavage of the peptide disrupts the FRET between the donor (coumarin) and acceptor (fluorescein) fluorophores, resulting in an increase in the ratio of donor emission to acceptor emission. The emission ratio of coumarin to fluorescein is used to assess the reaction progress. The extent of phosphorylation is determined from the emission ratio, which is low when the kinase is active (phosphorylated peptide is not cleaved, FRET pair connected) or higher for inhibited kinase (non-phosphorylated peptide is cleaved, FRET pair separated). Thus, the assay involves a kinase reaction in the presence of varying concentrations of a given compound, a development reaction with site specific protease, and detection of the fluorescent emission ratio of coumarin and fluorscein. […] Reaction conditions for each kinase are determined to provide optimal reaction times, incubation temperature, kinase and ATP concentrations. Test samples are made up in 1× kinase buffer (50 mM HEPES pH 7.5, 50 mM MgCl2, 5 mM EGTA, 0.05% BRIJ-35) and compound at desired concentration prepared in DMSO such that the final DMSO is 1%. […] Typically, assay plates are prepared to 10 μl final volume per sample, adding 2.5 μl of compound at 4× the desired concentration in 4% DMSO (serial dilution of compound provides concentration curve), 5 μl of the desired kinase mixed with Z′-LYTE™ peptide substrate (2× in 2× kinase buffer, final peptide at 2 μM), and 2.5 μl of 4×ATP solution. All kinase except for MAP2K1 were at 10 μM ATP in the kinase reaction, while MAP2K1 was at 100 μM. Samples are mixed and the kinase reaction is incubated 1 hour at room temperature, after which 5 μl of development solution is added and mixed. After incubation for another 1 hour at room temperature, 5 μl of stop reagent is added to each sample and mixed. The fluorescence signals are measured to determine the emission ratio.

[13] = molecular target: T13, Jnk2 (Homo sapiens, UniProt P45984); assay: AlphaScreen kinase assay, Jnk2; settings: read-out: IC50, activity toward kinase Jnk2
T13 construct: purchased Roche Protein Expression Group (Indianapolis, IN)
Summary of the method: (§1)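 Eight concentrations per compound (1:3 serial dilution of 20 mM DMSO stock) were tested. Read-out: AlphaScreen signal from phospho-antibody acceptor and streptavidin donor beads bound to biotinylated peptide substrate, reduced on kinase inhibition.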

[14] = molecular target: T14, Flt4 (Homo sapiens, UniProt P35916); assay: AlphaScreen kinase assay, Flt4; settings: read-out: IC50, activity toward kinase Flt4
T14 construct: purchased ProQinase GmbH (Freiburg, Germany)
Summary of the method: as §1

Measured: IC50

CCCC(=O)Nc1ccc(F)c(C(O)c2c[nH]c3ncc(OC)cc23)c1F (stereo not shown) [Compound P-01367]
≤ 10 µM: [1]

NC(=O)c1cccc(-c2cnc3[nH]cc(Cc4ccccc4O)c3c2)c1 [Compound P-01385]
≤ 10 µM: [1]

CS(=O)(=O)c1cccc(-c2ccnc3[nH]cc(C(=O)c4ccccc4F)c23)c1 [Compound P-0138]
≤ 10 µM: [2] | [1] | [3] | [4]

CC(C)(C)OC(=O)Nc1ccc(F)c(C(O)c2c[nH]c3ncc(Br)cc23)c1F (stereo not shown) [Compound P-0318, {3-[(5-Bromo-1H-pyrrolo[2,3-b]pyridin-3-yl)-hydroxy-methyl]-2,4-difluoro-phenyl}-carbamic acid tert-butyl ester]
≤ 10 µM: [5] | [1] | [6]

O=C(c1ccccc1F)c1c[nH]c2nccc(-c3cccnc3)c12 [Compound P-0061]
≤ 10 µM: [7] | [8] | [9] | [2] | [1] | [4]

O=C(c1cc(F)ccc1F)c1c[nH]c2nccc(-c3ccsc3)c12 [Compound P-0119]
≤ 10 µM: [9] | [5] | [1] | [10] | [4]

COc1ccc(-c2c[nH]c3ncccc23)cc1OC [Compound P-0238]
≤ 10 µM: [11] | [12] | [13]

OCc1cccc(-c2ccnc3[nH]cc(Sc4cccc(F)c4)c23)c1 [Compound P-0187]
≤ 10 µM: [9] | [5] | [1]

O=C(O)/C=C/c1cccc(-c2ccnc3[nH]cc(C(=O)c4ccccc4F)c23)c1 [Compound P-0108]
≤ 10 µM: [7] | [8] | [2] | [5] | [1] | [4]

O=C(c1cc(F)ccc1F)c1c[nH]c2nccc(-c3cc(F)cc(F)c3)c12 [Compound P-0215]
≤ 10 µM: [14] | [5] | [1] | [10] | [4]

O=C(O)/C=C/c1cccc(-c2ccnc3[nH]cc(C(=O)c4cc(F)ccc4F)c23)c1 [Compound P-0141]
≤ 10 µM: [8] | [5] | [1] | [4]

O=C(c1ccccc1F)c1c[nH]c2nccc(-c3ccccc3F)c12 [Compound P-0730]
≤ 10 µM: [8] | [5] | [1] | [10] | [4]
